Molecular target: T1, KCNQ 2/3 channels (HEK293 cells stably expressing human KCNQ2 and KCNQ3 subunits) (Homo sapiens, UniProt O43525+O43526)
T1 construct: expressed in transfected cells; host or cells: HEK293
Experiment: KCNQ2/3 channel activation, thallium flux FLIPR assay with BTC-AM dye
Format: cell-based
Conditions: for Emax: HEK293, read-out: Max. %; for EC50: HEK293 cells expressing human KCNQ2 and KCNQ3, thallium flux, FLIPR
How it was run: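 HEK293 cells stably expressing human KCNQ2/KCNQ3 were loaded with BTC-AM (3 μg/mL, 2 h, RT) and preincubated with compound for 4 min in pH 7.3 gluconate buffer containing 0.1 mM ouabain. Flux was triggered by 6 mM TlNO3/10 mM K2SO4 and read for 3 min; EC50 came from summed responses over basal, with maximum relative to 10 μM retigabine (100%).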

[1] = maximum response relative to the response produced by 10 μM retigabine (set at 100%)

Row | SMILES | Emax [1] [%] | EC50 [nM] | Max. % [1] [%]
1 | O=C(Nn1nc(C(F)(F)F)c2ccccc2c1=O)C(F)(F)c1ccccc1 [Example 44, 2,2-difluoro-N-[1-oxo-4-(trifluoromethyl)phthalazin-2(1H)-yl]-2-phenylacetamide] | 35 | > 10000 | 
2 | O=C(C[C@@H]1C[C@@H]2CC[C@H]1C2)Nn1nc(C2CCC2)c2ccccc2c1=O [Example 66, 2-[(1S,2S,4R)-bicyclo[2.2.1]hept-2-yl]-N-(4-cyclobutyl-1-oxophthalazin-2(1H)-yl)acetamide] | 148 | < 100 | 
3 | CC(C)CCC(=O)Nn1nc(-c2ccc(Cl)cc2)c2ccccc2c1=O [Example 110, N-[4-(4-chlorophenyl)-1-oxophthalazin-2(1H)-yl]-4-methylpentanamide] | 120 | < 100 | 
4 | O=C(Cc1ccc(F)cc1)Nn1nc(-c2ccccc2)c2c(F)ccc(F)c2c1=O [Example 14, N-(5,8-difluoro-1-oxo-4-phenylphthalazin-2(1H)-yl)-2-(4-fluorophenyl)acetamide] | 171 | 100 to 500 | 
5 | O=C(Cc1ccc(Cl)cc1)Nn1nc(C2CCCCC2)c2ccccc2c1=O [Example 76, 2-(4-chlorophenyl)-N-(4-cyclohexyl-1-oxophthalazin-2(1H)-yl)acetamide] | 157 | 100 to 500 | 
6 | O=C(Cc1ccc(Cl)c(F)c1)Nn1nc(-c2ccc(Cl)cc2)c2ccccc2c1=O [Example 114, 2-(4-chloro-3-fluorophenyl)-N-[4-(4-chlorophenyl)-1-oxophthalazin-2(1H)-yl]acetamide] | 119 | 500 to 1000 | 

Further lines, results first:

Row | Emax [1] [%] | EC50 [nM] | Max. % [1] [%] | SMILES
7 | 129 | < 100 |  | Cc1ccc(-c2nn(NC(=O)CC34CC5CC(CC(C5)C3)C4)c(=O)c3ccccc23)cc1 [Example 138, 2-(adamantan-1-yl)-N-[4-(4-methylphenyl)-1-oxophthalazin-2(1H)-yl]acetamide]
8 | 134 | 500 to 1000 |  | CC(C)c1ccc(-c2nn(NC(=O)Cc3cc(F)cc(F)c3)c(=O)c3ccccc23)cc1 [Example 171, 2-(3,5-difluorophenyl)-N-[4-(4-isopropylphenyl)-1-oxophthalazin-2(1H)-yl]acetamide]
9 | 136 | 100 to 500 |  | O=C(Cc1cc(F)cc(F)c1)Nn1nc(-c2ccccc2)c2c(c1=O)CCCC2 [Example 186, 2-(3,5-difluorophenyl)-N-(1-oxo-4-phenyl-5,6,7,8-tetrahydrophthalazin-2(1H)-yl)acetamide]
10 | 177 | < 100 |  | Cc1ccc(-c2nn(NC(=O)CC3CC4CCC3C4)c(=O)c3ccccc23)cc1C (racemic) [Example 163, (±)-2-(exo-bicyclo[2.2.1]hept-2-yl)-N-[4-(3,4-dimethylphenyl)-1-oxophthalazin-2(1H)-yl]acetamide]
11 | 103 | 500 to 1000 |  | O=C(Nn1nc(-c2ccc(Cl)cc2)c2ccccc2c1=O)[C@@H]1C[C@H]1c1ccccc1 (relative stereo) [Example 120, trans-N-[4-(4-chlorophenyl)-1-oxophthalazin-2(1H)-yl]-2-phenylcyclopropanecarboxamide]
12 | 48 | > 10000 |  | COc1ccc(-c2nn(NC(=O)Cc3cc(F)cc(F)c3)c(=O)c3cc(Br)ccc23)cc1 [Example 177, N-[7-bromo-4-(4-methoxyphenyl)-1-oxophthalazin-2(1H)-yl]-2-(3,5-difluorophenyl)acetamide]
13 | -3 | > 10000 |  | O=C(CC12CC3CC(CC(O)(C3)C1)C2)Nn1nc(-c2ccccc2)c2ccsc2c1=O [Example 180, 2-(3-hydroxyadamantan-1-yl)-N-(7-oxo-4-phenylthieno[2,3-d]pyridazin-6(7H)-yl)acetamide]
14 |  | < 100 | 165 | Cc1ccc(C)c(-c2nn(NC(=O)CC3CC4CCC3C4)c(=O)c3ccccc23)c1 (racemic) [Example 155, (±)-2-(exo-bicyclo[2.2.1]hept-2-yl)-N-[4-(2,5-dimethylphenyl)-1-oxophthalazin-2(1H)-yl]acetamide]
